Source: the Deep4Chem optical property database
Several values for one entry are separate records, joined by “and”; a condition that tells them apart may be missing. Identical values can stand only once. One block for each molecule: values may come before it.

Assay: photoluminescence quantum yield (fraction); solvent given as SMILES

SMILES: CCN(CC)c1ccc2cc(/C=C/C3=CC(/C=C/c4cc5ccc(N(CC)CC)cc5oc4=O)=[O+][B-](F)(F)O3)c(=O)oc2c1
- photoluminescence quantum yield (in CC#N): 0.012
- photoluminescence quantum yield (in CC(C)=O): 0.032
- photoluminescence quantum yield (in CCOC(C)=O): 0.418
- photoluminescence quantum yield (in CN(C)C=O): 0.096
- photoluminescence quantum yield (in CS(C)=O): 0.008
- photoluminescence quantum yield (in Cc1ccccc1): 0.849
- photoluminescence quantum yield (in ClC(Cl)Cl): 0.504
- photoluminescence quantum yield (in ClCCl): 0.271

SMILES: Cc1ccc(-n2c3ccccc3c3cc(-c4ccc5[n+](c4)[B-](F)(F)n4c-5nc5c6ccccc6c6ccccc6c54)ccc32)cc1
- photoluminescence quantum yield (in ClC(Cl)Cl): 0.957

SMILES: C(#Cc1cccs1)C(C#Cc1cccs1)=Cc1ccc(C=C(C#Cc2cccs2)C#Cc2cccs2)cc1
- photoluminescence quantum yield (in ClC(Cl)Cl): 0.32 and 0.25

SMILES: N#Cc1c(-n2c3ccccc3c3ccccc32)c(-n2c3ccccc3c3ccccc32)cc(-n2c3ccccc3c3ccccc32)c1-n1c2ccccc2c2ccccc21
- photoluminescence quantum yield (in Cc1ccccc1): 0.49

SMILES: NCCCCCCCCCCCCN1C(=O)c2ccc3c4ccc5c6c(ccc(c7ccc(c2c37)C1=O)c64)C(=O)N(CCCCCCCCCCCCN)C5=O
- photoluminescence quantum yield (in CN(C)C=O): 0.83

SMILES: CCCCCCCCCCCCCCCCOc1cc(C#Cc2ccc3ccccc3c2-c2c(C#Cc3cc(OCCCCCCCCCCCCCCCC)c(C#Cc4ccc(C=C(C#N)C#N)cc4)cc3OCCCCCCCCCCCCCCCC)ccc3ccccc23)c(OCCCCCCCCCCCCCCCC)cc1C#Cc1ccc(C=C(C#N)C#N)cc1
- photoluminescence quantum yield (in Brc1ccccc1): 0.63
- photoluminescence quantum yield (in C1CCCCC1): 0.99
- photoluminescence quantum yield (in C1CCOC1): 0.3
- photoluminescence quantum yield (in C1COCCO1): 0.94
- photoluminescence quantum yield (in CCCCCC): 0.98
- photoluminescence quantum yield (in CCCCCCCCO): 0.52
- photoluminescence quantum yield (in CCCCOCCCC): 0.97
- photoluminescence quantum yield (in CCOC(C)=O): 0.37
- photoluminescence quantum yield (in CCOCC): 0.87
- photoluminescence quantum yield (in Cc1ccccc1): 0.95
- photoluminescence quantum yield (in ClC(Cl)(Cl)Cl): 0.95
- photoluminescence quantum yield (in ClC(Cl)Cl): 0.81
- photoluminescence quantum yield (in ClCCl): 0.23

SMILES: C(=C\c1cnccn1)/c1ccc2nccnc2c1
- photoluminescence quantum yield (in CCCCCC): 0.001
- photoluminescence quantum yield (in CCO): 0.09
- photoluminescence quantum yield (in CO): 0.12
- photoluminescence quantum yield (in ClCCl): 0.04
- photoluminescence quantum yield (in c1ccccc1): 0.02

SMILES: CN(C)c1ccc(/C=C/c2cc(/C=C/c3ccc(N(C)C)cc3)nc(/C=C/c3ccc(N(C)C)cc3)n2)cc1
- photoluminescence quantum yield (in ClCCl): 0.22

SMILES: CC[N+]1(CC)CN2C(C)=CC(C)=C(C(=O)O)C2=N1
- photoluminescence quantum yield (in CN(C)C=O): 0.056
- photoluminescence quantum yield (in O): 0.622

SMILES: CCCCCCCCC1(CCCCCCCC)c2cc(-c3ccc(C=C4C(=O)c5ccccc5C4=O)cc3)ccc2-c2ccc(-c3ccc(C=C4C(=O)c5ccccc5C4=O)cc3)cc21
- photoluminescence quantum yield (in C1CCOC1): 0.048
- photoluminescence quantum yield (in CC(C)=O): 0.116
- photoluminescence quantum yield (in CCCCCC): 0.007
- photoluminescence quantum yield (in CS(C)=O): 0.245
- photoluminescence quantum yield (in Cc1ccccc1): 0.011
- photoluminescence quantum yield (in ClC(Cl)Cl): 0.014

SMILES: CCN(CC)c1ccc(-c2nc(Oc3ccc(-c4nc5ccccc5[nH]4)cc3)nc(Oc3ccc(-c4nc5ccccc5[nH]4)cc3)n2)cc1
- photoluminescence quantum yield (in CN(C)C=O): 0.197

SMILES: O=C1c2ccc(N(c3ccccc3)c3ccccc3)cc2C(=O)c2ccc(N(c3ccccc3)c3ccccc3)cc21
- photoluminescence quantum yield (in Cc1ccccc1): 0.2
- photoluminescence quantum yield (in c1ccc2c(c1)c1ccccc1n2-c1ccc(-c2ccc(-n3c4ccccc4c4ccccc43)cc2)cc1): 0.5

SMILES: Cc1cc(N(C)C)cc(C)c1/C=C/C=C/c1ccc(C#N)cc1
- photoluminescence quantum yield (in C1CCOC1): 0.087
- photoluminescence quantum yield (in CC#N): 0.212
- photoluminescence quantum yield (in CCCCCC): 0.043
- photoluminescence quantum yield (in CCCCOCCCC): 0.061
- photoluminescence quantum yield (in CCO): 0.168
- photoluminescence quantum yield (in CCOCC): 0.082

SMILES: CC(C)(C)c1ccc2c(c1)c1cc(C(C)(C)C)ccc1n2-c1cc(C(=O)c2ccncc2)cc(-n2c3ccc(C(C)(C)C)cc3c3cc(C(C)(C)C)ccc32)c1
- photoluminescence quantum yield (in Cc1ccccc1): 0.075
- photoluminescence quantum yield (in c1cc(-c2cccc(-n3c4ccccc4c4ccccc43)c2)cc(-n2c3ccccc3c3ccccc32)c1): 0.97

SMILES: CCCCOC(=O)c1ccccc1-c1c2ccc(=[N+](CC)CC)cc-2oc2cc(N(CC)CC)ccc12
- photoluminescence quantum yield (in CC#N): 0.36
- photoluminescence quantum yield (in CCO): 0.71
- photoluminescence quantum yield (in CN(C)C=O): 0.35
- photoluminescence quantum yield (in O): 0.3

SMILES: CC(=O)[B-]1(C(C)=O)OC(c2ccccc2)=CC(c2ccc3ccccc3c2)=[O+]1
- photoluminescence quantum yield (in CC#N): 0.52
- photoluminescence quantum yield (in ClC(Cl)(Cl)Cl): 0.58

SMILES: Cc1ccc(N2C(c3ccccc3NS(=O)(=O)c3ccc(C)cc3)=NC(c3ccccc3)C2c2ccccc2)cc1 (centres undefined)
- photoluminescence quantum yield (in Cc1ccccc1): 0.004

SMILES: Cc1ccc(-n2c3ccccc3c3cc(C=C(C#N)C#N)ccc32)cc1
- photoluminescence quantum yield (in C1CCOC1): 0.12
- photoluminescence quantum yield (in CC#N): 0.04
- photoluminescence quantum yield (in CC(C)=O): 0.05
- photoluminescence quantum yield (in CCOC(C)=O): 0.09
- photoluminescence quantum yield (in CO): 0.03
- photoluminescence quantum yield (in CS(C)=O): 0.04
- photoluminescence quantum yield (in Cc1ccccc1): 0.11
- photoluminescence quantum yield (in ClC(Cl)Cl): 0.08

SMILES: CC1(C)c2ccccc2N(c2ccccc2)c2ccc(-c3nc(-c4ccccc4)nc(-c4ccccc4)n3)cc21
- photoluminescence quantum yield (in O=P(c1ccccc1)(c1ccccc1)c1ccccc1Oc1ccccc1P(=O)(c1ccccc1)c1ccccc1): 0.55

SMILES: CC(C)[Si](C#Cc1c2ccccc2c(C#C[Si](C(C)C)(C(C)C)C(C)C)c2nc3c(ccc4cc5ccccc5cc43)nc12)(C(C)C)C(C)C
- photoluminescence quantum yield (in CCCCCC): 0.12

SMILES: Cc1cc(C)c(B(c2ccccc2N(c2ccccc2)c2ccccc2)c2c(C)cc(C)cc2C)c(C)c1
- photoluminescence quantum yield (in Cc1ccccc1): 0.73

SMILES: CCN(CC)c1ccc2cc(C#N)c(=N)oc2c1
- photoluminescence quantum yield (in ClCCl): 0.84

SMILES: CN(c1ccccc1)c1ccc(/C=C2\C(=O)c3ccccc3S2(=O)=O)cc1
- photoluminescence quantum yield (in C1CCOC1): 0.003
- photoluminescence quantum yield (in C1COCCO1): 0.012
- photoluminescence quantum yield (in CC#N): 0.002
- photoluminescence quantum yield (in CC(C)=O): 0.001
- photoluminescence quantum yield (in CCOC(C)=O): 0.003
- photoluminescence quantum yield (in CN(C)C=O): 0.003
- photoluminescence quantum yield (in CO): 0.012
- photoluminescence quantum yield (in CS(C)=O): 0.018
- photoluminescence quantum yield (in Cc1ccccc1): 0.103
- photoluminescence quantum yield (in ClC(Cl)Cl): 0.008
- photoluminescence quantum yield (in ClCCl): 0.004

Continued, values first:

- photoluminescence quantum yield (in C1CCCCC1): 0.14
- photoluminescence quantum yield (in CC#N): 0.14
SMILES: FC(F)(F)c1ccc(/C=C/c2nc3c(ccc4ccccc43)s2)cc1

- photoluminescence quantum yield (in ClCCl): 0.002
SMILES: N#C/C(=C\c1ccc(-c2ccncc2)cc1)c1ccc(-c2ccncc2)cc1

- photoluminescence quantum yield (in CC#N): 0.03
- photoluminescence quantum yield (in CCCCCC): 0.03
- photoluminescence quantum yield (in CCOC(C)=O): 0.03
- photoluminescence quantum yield (in CO): 0.02
- photoluminescence quantum yield (in ClCCl): 0.04
SMILES: CCCSc1ccc2n1[B-](F)(F)[N+]1=CC=CC1=C2c1ccccc1

- photoluminescence quantum yield (in C1CCCCC1): 0.51
SMILES: Oc1ccc2ccccc2c1

- photoluminescence quantum yield (in CC#N): 0.24
SMILES: COc1cc2cc(/C=C/c3ccc(/C=C/c4ccc(/C=C(\C#N)C(=O)O)cc4)cc3)c(=O)oc2cc1OC

- photoluminescence quantum yield (in ClCCl): 0.48
SMILES: COc1ccc(C2=C(c3ccc(OC)cc3)c3cccc4c3c(cc3nc5ccccc5nc34)O2)cc1

- photoluminescence quantum yield (in C1CCCCC1): 0.048
- photoluminescence quantum yield (in C1CCOC1): 0.88
- photoluminescence quantum yield (in CC#N): 0.69
- photoluminescence quantum yield (in CO): 0.021
SMILES: COc1c(-c2ccc(N(C)C)cc2)oc2ccccc2c1=O

- photoluminescence quantum yield (in ClCCl): 0.02
SMILES: CN(C)c1ccc(/C=C/c2nc(/C=C/c3ccc(N(C)C)cc3)c3ccccc3n2)cc1

- photoluminescence quantum yield (in C1CCCCC1): 0.03
- photoluminescence quantum yield (in CO): 0.005
SMILES: C/C(=C\c1ccc(Cl)cc1)c1nc2ccccc2s1

- photoluminescence quantum yield (in ClC(Cl)Cl): 0.01
- photoluminescence quantum yield (in O): 0.0008
SMILES: C/C=C/C=C/C1=NC(=C\c2ccc(O)cc2)/C(=O)N1C

- photoluminescence quantum yield (in ClCCl): 0.444
SMILES: Cc1cc2c3ccccc3oc2c2[nH]c3ccccc3c12

- photoluminescence quantum yield (in C1COCCO1): 0.159
SMILES: COC(=O)c1ccc(/C=C2\N=C(c3ccccc3)NC2=O)cc1

- photoluminescence quantum yield (in C1CCCCC1): 0.852
- photoluminescence quantum yield (in CCOC(C)=O): 0.733
- photoluminescence quantum yield (in CN(C)C=O): 0.562
- photoluminescence quantum yield (in CO): 0.428
- photoluminescence quantum yield (in ClCCl): 0.827
SMILES: CCN(CC)c1ccc2c(c1)oc(=O)c1c(C)nc3c(c(C)nn3-c3ccccc3)c12

- photoluminescence quantum yield (in ClCCl): 0.21
SMILES: COc1ccc(-c2cc(-c3ccccc3)nn2C)cc1

- photoluminescence quantum yield (in C1CCOC1): 0.29
SMILES: Cc1ccc(-c2cnc3nn4ccccc4c3c2)cc1
